The text below walks through data of ChEMBL document CHEMBL4257559, “Protective effects of astragaloside IV against hypoxic pulmonary hypertension” (Medchemcomm, 2018).

Molecules are shown by their SMILES. The source made the active and inactive calls. No cut-off for these calls is given here.

Data set [1] concerns Rattus norvegicus. Nature of the data set: Protective effect against chronic hypoxia-induced pulmonary hypertension in Sprague-Dawley rat assessed as decrease in index of right ventricular hypertrophy by measuring ratio of right ventricular/(left ventricular + septum) weight at 10 mg/kg, ip administered every other day at 10 mins prior to induction of hypoxia and measured after 2 weeks. Type of data set: functional, organism-based.

The species named for data set [2] is Rattus norvegicus. Put plainly: Inhibition of hypoxia-induced proliferation of Sprague-Dawley rat PASMC at 10 uM preincubated for 10 mins followed by hypoxia induction and measured after 24 hrs by CCK8 assay. The format is functional. On the technique in general: Tetrazolium assays rely on reduction of a dye to a coloured formazan, in cell work by metabolically active cells.

Data set [3] relates to Rattus norvegicus. Put plainly: Protective effect against chronic hypoxia-induced pulmonary hypertension in Sprague-Dawley rat assessed as decrease in serum angiotensin-2 levels at 50 mg/kg, ip administered every other day at 10 mins prior to induction of hypoxia and measured after 2 weeks by ELISA. Type of data set: functional, organism-based. For orientation: An ELISA detects its analyte on a solid surface through an enzyme-linked reagent.

The species named for data set [4] is Rattus norvegicus. Nature of the data set: Inhibition of hypoxia-induced proliferation of Sprague-Dawley rat PASMC at 50 uM preincubated for 10 mins followed by hypoxia induction and measured after 24 hrs by CCK8 assay. The format is functional.
A short description of data set [5]: Tmax in chronic hypoxia-induced pulmonary hypertension model of Sprague-Dawley rat at 10 mg/kg, ip after 30 to 600 mins by HPLC analysis. Type of data set: ADME, organism-based. Particulars: in vivo.
Data set [6] deals with Rattus norvegicus. Nature of the data set: Protective effect against chronic hypoxia-induced pulmonary hypertension in Sprague-Dawley rat assessed as decrease in serum angiotensin-2 levels at 10 mg/kg, ip administered every other day at 10 mins prior to induction of hypoxia and measured after 2 weeks by ELISA. The format is functional, organism-based.
Data set [7] relates to Rattus norvegicus. Put plainly: Protective effect against chronic hypoxia-induced pulmonary hypertension in Sprague-Dawley rat assessed as decrease in serum endothelin levels at 50 mg/kg, ip administered every other day at 10 mins prior to induction of hypoxia and measured after 2 weeks by ELISA. The format is functional, organism-based.
Data set [8] concerns Pulmonary artery. Nature of the data set: Protective effect against chronic hypoxia-induced pulmonary hypertension in Sprague-Dawley rat pulmonary arterial ring assessed as increase in relaxation of pulmonary artery ring at 10 uM treated after phenylephrine-induced vasoconstriction measured at 1 min. Type of data set: functional, tissue-based.
Data set [9] can be described thus: Cmax in chronic hypoxia-induced pulmonary hypertension model of Sprague-Dawley rat at 50 mg/kg, ip after 30 to 600 mins by HPLC analysis. The format is ADME, organism-based. Further details: dose 50 mg/kg, route intraperitoneal. Particulars: in vivo.
Data set [10] deals with Rattus norvegicus. Nature of the data set: Protective effect against chronic hypoxia-induced pulmonary hypertension in ip dosed Sprague-Dawley rat assessed as decrease in serum TNF-alpha levels administered every other day at 10 mins prior to induction of hypoxia and measured after 2 weeks by ELISA. Type of data set: functional, organism-based.
Data set [11] deals with Rattus norvegicus. Put plainly: Protective effect against chronic hypoxia-induced pulmonary hypertension in Sprague-Dawley rat assessed as decrease in index of right ventricular hypertrophy by measuring ratio of right ventricular/(left ventricular + septum) weight at 50 mg/kg, ip administered every other day at 10 mins prior to induction of hypoxia and measured after 2 weeks. Type of data set: functional, organism-based.

The subject of data set [12] is Rattus norvegicus. Put plainly: Protective effect against chronic hypoxia-induced pulmonary hypertension in ip dosed Sprague-Dawley rat assessed as decrease in serum IL-6 levels administered every other day at 10 mins prior to induction of hypoxia and measured after 2 weeks by ELISA. The format is functional, organism-based.
Data set [13] concerns Pulmonary artery. Nature of the data set: Protective effect against chronic hypoxia-induced pulmonary hypertension in Sprague-Dawley rat pulmonary arterial ring assessed as increase in relaxation of pulmonary artery ring at 50 uM treated after phenylephrine-induced vasoconstriction measured at 10 mins relative to control. Further details: scale not given: the % may be the effect or the level left. The format is functional.

Data set [14] deals with Pulmonary artery. Put plainly: Protective effect against chronic hypoxia-induced pulmonary hypertension in Sprague-Dawley rat pulmonary arterial ring assessed as increase in relaxation of pulmonary artery ring at 50 uM treated after phenylephrine-induced vasoconstriction measured at 1 min. The format is functional, tissue-based.
Data set [15] relates to Rattus norvegicus. Nature of the data set: Protective effect against chronic hypoxia-induced pulmonary hypertension in Sprague-Dawley rat assessed as decrease in right ventricular pressure at 50 mg/kg, ip administered every other day at 10 mins prior to induction of hypoxia and measured after 2 weeks. The format is functional, organism-based.
Data set [16] in a line: Tmax in chronic hypoxia-induced pulmonary hypertension model of Sprague-Dawley rat at 50 mg/kg, ip after 30 to 600 mins by HPLC analysis. Particulars: in vivo. Type of data set: ADME, organism-based.
Data set [17] has as its system Pulmonary artery. Nature of the data set: Protective effect against chronic hypoxia-induced pulmonary hypertension in Sprague-Dawley rat pulmonary arterial ring assessed as increase in relaxation of pulmonary artery ring at 10 uM treated after phenylephrine-induced vasoconstriction measured at 10 mins relative to control. Type of data set: functional. Further details: scale not given: the % may be the effect or the level left.

Data set [18] relates to Rattus norvegicus. Nature of the data set: Protective effect against chronic hypoxia-induced pulmonary hypertension in Sprague-Dawley rat assessed as decrease in right ventricular pressure at 10 mg/kg, ip administered every other day at 10 mins prior to induction of hypoxia and measured after 2 weeks. Type of data set: functional, organism-based.
Data set [19] in a line: Cmax in chronic hypoxia-induced pulmonary hypertension model of Sprague-Dawley rat at 10 mg/kg, ip after 30 to 600 mins by HPLC analysis. Particulars: in vivo. Further details: dose 10 mg/kg, route intraperitoneal. Type of data set: ADME, organism-based.
The subject of data set [20] is Rattus norvegicus. Nature of the data set: Protective effect against chronic hypoxia-induced pulmonary hypertension in Sprague-Dawley rat assessed as decrease in serum endothelin levels at 10 mg/kg, ip administered every other day at 10 mins prior to induction of hypoxia and measured after 2 weeks by ELISA. Type of data set: functional, organism-based.
The test system of data set [21] is Rattus norvegicus. Put plainly: Protective effect against chronic hypoxia-induced pulmonary hypertension in Sprague-Dawley rat assessed as decrease in mean pulmonary arterial pressure at 10 mg/kg, ip administered every other day at 10 mins prior to induction of hypoxia and measured after 2 weeks. The format is functional, organism-based.
Data set [22] deals with Rattus norvegicus. Nature of the data set: Protective effect against chronic hypoxia-induced pulmonary hypertension in Sprague-Dawley rat assessed as decrease in mean pulmonary arterial pressure at 50 mg/kg, ip administered every other day at 10 mins prior to induction of hypoxia and measured after 2 weeks. The format is functional, organism-based.

For orientation: Tmax means the time at which the peak concentration occurs. As a reminder, the Cmax is the maximum level reached in the sampled fluid or tissue. With `CC(C)(O)[C@@H]1CC[C@](C)([C@H]2[C@@H](O)C[C@@]3(C)[C@@H]4C[C@H](O[C@@H]5O[C@H](CO)[C@@H](O)[C@H](O)[C@H]5O)[C@H]5C(C)(C)[C@@H](O[C@@H]6OC[C@@H](O)[C@H](O)[C@H]6O)CC[C@@]56C[C@@]46CC[C@]23C)O1`, the outcome in the data set with Rattus norvegicus [1], with Rattus norvegicus [6], in the data set with Rattus norvegicus [11], in the data set on Rattus norvegicus [15], in the data set on Rattus norvegicus [18] and in the data set with Rattus norvegicus [20] was inactive. In addition, the result in the data set with Rattus norvegicus [21] and with Rattus norvegicus [22] was inactive. Moreover, in the data set filed under Rattus norvegicus [2], the inhibition result was “inactive”. Further, the outcome in the data set with Rattus norvegicus [3], in the data set on Rattus norvegicus [7], with Pulmonary artery [8] and in the data set with Pulmonary artery [14] was Active. Further, the inhibition result in the data set filed under Rattus norvegicus [4] is “Active”. The Tmax in [5] and in data set [16] was 1 h in each case. Also, the Cmax in data set [9] was determined as 25.2 µg/mL; in [19], 7.27 µg/mL. In addition, the Activity result is “Dose-dependent effect” with Rattus norvegicus [10], “Dose-dependent effect” with Rattus norvegicus [12], 21.194% with Pulmonary artery [13] and 9.42% in the data set on Pulmonary artery [17].
